One compound from ChEMBL document CHEMBL1144963, “Polyacylated neohesperidosides from Geranium caespitosum: bacterial multidrug resistance pump inhibitors” (2003) can be followed below.

Common to all, as to type: functional
The subject of experiment [1] is Staphylococcus aureus. The experiment is described as follows: Antimicrobial activity against Staphylococcus aureus in combination with Norfloxacin and 10 ug/mL of compound 4 (alone MIC= 1 ug/mL).
Experiment [2] concerns Staphylococcus aureus. The experiment is described as follows: Antimicrobial activity against Staphylococcus aureus in combination with Ciprofloxacin and 10 ug/mL of compound 4 (alone MIC= 0.5 ug/mL).
Experiment [3] deals with Priestia megaterium. The experiment is described as follows: Antimicrobial activity against Bacillus megaterium in combination with Rhein and 10 ug/mL of compound 4 (alone MIC= 4 ug/mL).
The test system of experiment [4] is Bacillus subtilis. Nature of the experiment: Antimicrobial activity against Bacillus subtilis in combination with Rhein and 10 ug/mL of compound 4 (alone MIC= 16 ug/mL).
In experiment [5] the test system is Staphylococcus aureus. Nature of the experiment: Antimicrobial activity against Staphylococcus aureus in combination with Berberine and 10 ug/mL of compound 4 (alone MIC= 500 ug/mL).
The test system of experiment [6] is Priestia megaterium. Nature of the experiment: Antimicrobial activity against Bacillus megaterium in combination with Norfloxacin and 10 ug/mL of compound 4 (alone MIC= 1 ug/mL).
The subject of experiment [7] is Staphylococcus aureus. The experiment is described as follows: Antimicrobial activity against NorA Staphylococcus aureus in combination with Norfloxacin and 10 ug/mL of compound 4 (alone MIC= 0.4 ug/mL).
Experiment [8] concerns Bacillus subtilis. Nature of the experiment: Antimicrobial activity against Bacillus subtilis in combination with Ciprofloxacin and 10 ug/mL of compound 4 (alone MIC= 0.8 ug/mL).
Experiment [9] has as its system Bacillus subtilis. Nature of the experiment: Antimicrobial activity against Bacillus subtilis in combination with Norfloxacin and 10 ug/mL of compound 4 (alone MIC= 1 ug/mL).
Experiment [10] relates to Bacillus subtilis. The experiment is described as follows: Antimicrobial activity against Bacillus subtilis in combination with Berberine and 10 ug/mL of compound 4 (alone MIC= 500 ug/mL).
Experiment [11] concerns Staphylococcus aureus. The experiment is described as follows: Antimicrobial activity against Staphylococcus aureus in combination with Rhein and 10 ug/mL of compound 4 (alone MIC= 4 ug/mL).
In experiment [12] the test system is Staphylococcus aureus. The experiment is described as follows: Antimicrobial activity against NorA Staphylococcus aureus in combination with Ciprofloxacin and 10 ug/mL of compound 4 (alone MIC= 0.2 ug/mL).
The subject of experiment [13] is Staphylococcus aureus. Nature of the experiment: Antimicrobial activity against NorA Staphylococcus aureus in combination with Berberine and 10 ug/mL of compound 4 (alone MIC= 64 ug/mL).
Experiment [14] concerns Priestia megaterium. The experiment is described as follows: Antimicrobial activity against Bacillus megaterium in combination with Berberine and 10 ug/mL of compound 4 (alone MIC= 125 ug/mL).
For experiment [15], the system named is Staphylococcus aureus. Nature of the experiment: Antimicrobial activity against NorA Staphylococcus aureus in combination with Rhein and 10 ug/mL of compound 4 (alone MIC= 4 ug/mL).
The test system of experiment [16] is Priestia megaterium. The experiment is described as follows: Antimicrobial activity against Bacillus megaterium in combination with Ciprofloxacin and 10 ug/mL of compound 4 (alone MIC= 0.8 ug/mL).

Usually MIC stands for the lowest concentration found to suppress growth. In the case of `CCCCOC1OC(COC(=O)C(C)C)C(OC(=O)C(C)C)C(O)[C@H]1O[C@@H]1OC(C)C(OC(=O)C(C)C)C(OC(C)=O)C1OC(=O)CCCC` (stereo partly specified), the MIC came out at 0.2 µg/mL in the experiment with Staphylococcus aureus [1]; 0.1 µg/mL with Staphylococcus aureus [2]; 1 µg/mL in the experiment on Priestia megaterium [3]; 4 µg/mL in the experiment with Bacillus subtilis [4]; 3.12 µg/mL in the experiment with Staphylococcus aureus [5]; 0.2 µg/mL in the experiment on Priestia megaterium [6]. Further, the MIC in the experiment on Staphylococcus aureus [7] was 0.1 µg/mL; in the experiment with Bacillus subtilis [8], 0.1 µg/mL; in the experiment on Bacillus subtilis [9], 0.2 µg/mL; in the experiment on Bacillus subtilis [10] it was 125 µg/mL; with Staphylococcus aureus [11], 1 µg/mL; in the experiment on Staphylococcus aureus [12] it was 0.1 µg/mL. Besides, the MIC worked out at 1.56 µg/mL with Staphylococcus aureus [13], 6.25 µg/mL with Priestia megaterium [14], 1 µg/mL in the experiment with Staphylococcus aureus [15] and 0.1 µg/mL with Priestia megaterium [16].
